# Tests used:
# UACC-257 = assay: cells; settings: Homo sapiens, UACC-257, 48 h
# ACHN = assay: cells; settings: Homo sapiens, 48 h
# SN12C = assay: cells; settings: Homo sapiens, 48 h
# PC-3 = assay: cells; settings: Homo sapiens, PC-3, 48 h
# CAKI-1 = assay: cells; settings: Homo sapiens, CAKI-1, 48 h
# SK-MEL-28 = assay: cells; settings: Homo sapiens, SK-MEL-28, 48 h
# CCRF-CEM = assay: cells; settings: Homo sapiens, 48 h, read-out: Median Growth Inhibitory Concentration (GI50)
# NCI-H522 = assay: cells; settings: Homo sapiens, NCI-H522, 48 h
# 786-0 = assay: cells; settings: Homo sapiens, 786-0, 48 h
# HOP-62 = assay: cells; settings: Homo sapiens, HOP-62, 48 h, read-out: Median Growth Inhibitory Concentration (GI50)
# NCI/ADR-RES = assay: cells; settings: Homo sapiens, 48 h
# [1] = system: Vascular Endothelial Growth Factor (VEGF) production by human melanoma cell line RPMI-7951; assay: VEGF ELISA, RPMI-7951; settings: for VEGF ELISA / VEGF: RPMI-7951; for VEGF ELISA: DMSO control 3713
# Experimental: RPMI-795 1, MDA-MB-231 and MDA-MB-435 cell lines were cultured in MEM-alpha medium (GIBCO-BRL, Long Island, N.Y.) containing 10% fetal bovine serum (RPMI-7951, MDA-MB-231) or 5% FBS (MDA-MB-435) at 37° C. and under 5% CO2/95% air. […] The cells were cultured in 48 well plates in all of the experiments described.
# A VEGF enzyme-linked immunosorbent assay (ELISA) was utilized to determine the effect of the compounds of the present invention on VEGF production of a variety of human cancer cell lines. For the VEGF assay, cells were plated at a concentration of 80,000 cells/well and cultured overnight. Compounds or vehicle (DMSO 0.1%) were then added and the plates were incubated for 72 hours. Supernatant was then collected from each well and frozen in a −80° C. freezer until needed. Cell viability was determined by Neutral Red Assay. VEGF ELISA Kit (R & D, Minneapolis, Minn.) was used to determine the amount of VEGF in the culture supernatants. The ELISA was carried out according to the manufacturer's procedure.
# HCC-2998 = assay: cells; settings: Homo sapiens, HCC 2998, 48 h
# OVCAR-3 = assay: cells; settings: Homo sapiens, OVCAR-3, 48 h
# SNB-75 = assay: cells; settings: Homo sapiens, SNB-75, 48 h
# LOX IMVI = assay: cells; settings: Homo sapiens, 48 h, read-out: Median Growth Inhibitory Concentration (GI50)
# T-47D = assay: cells; settings: Homo sapiens, T47D, 48 h
# UO-31 = assay: cells; settings: Homo sapiens, UO-31, 48 h
# NCI-H460 = assay: cells; settings: Homo sapiens, NCI-H460, 48 h
# SF-268 = assay: cells; settings: Homo sapiens, SF-268, 48 h
# NCI-H226 = assay: cells; settings: Homo sapiens, NCI-H226, 48 h
# SNB-19 = assay: cells; settings: Homo sapiens, SNB-19, 48 h
# MDA-MB-231 = assay: cells; settings: Homo sapiens, MDA-MB-231, 48 h
# KM12 = assay: cells; settings: Homo sapiens, KM12, 48 h
# HCT-15 = assay: cells; settings: Homo sapiens, HCT-15, 48 h
# MOLT-4 = assay: cells; settings: Homo sapiens, MOLT-4, 48 h
# RXF 393 = assay: cells; settings: Homo sapiens, RXF 393, 48 h
# MCF-7 = assay: cells; settings: Homo sapiens, MCF7, 48 h
# [2] = read-out: Median Growth Inhibitory Concentration (GI50)
# [3] = read-out: Median Lethal Concentration (LC50)
# [4] = Homo sapiens, RPMI-7951, 72 h, read-out: VEGF
smiles,measurement,setting,value
COc1cc(/C=C/C(=O)CC(=O)/C=C/c2ccc(O)c(OC)c2)ccc1O [Curcumin],GI50,UACC-257; [2],12.6 µM
same,CC50,UACC-257; [3],50.1 µM
same,GI50,ACHN; [2],12.6 µM
same,CC50,ACHN; [3],63.1 µM
same,GI50,SN12C; [2],7.9 µM
same,CC50,SN12C; [3],63.1 µM
same,GI50,PC-3; [2],7.9 µM
same,CC50,PC-3; [3],63.1 µM
same,GI50,CAKI-1; [2],12.6 µM
same,CC50,CAKI-1; [3],50.1 µM
same,GI50,SK-MEL-28; [2],5 µM
same,CC50,SK-MEL-28; [3],50.1 µM
same,GI50,CCRF-CEM,3.2 µM
same,GI50,NCI-H522; [2],5 µM
same,CC50,NCI-H522; [3],79.4 µM
same,GI50,786-0; [2],3.2 µM
same,CC50,786-0; [3],39.8 µM
same,GI50,HOP-62,4 µM
same,GI50,NCI/ADR-RES; [2],7.9 µM
same,CC50,NCI/ADR-RES; [3],< 100 µM
same,activity at 5 µM,[1]; [4],98%
same,activity at 20 µM,[1]; [4],5%
same,VEGF ELISA,[1]; 5 μM,3989 pg/ml/well
same,VEGF,"[1]; 5 μM, DMSO control 4197 (EF-25: 1045)",4111 pg/mL
same,VEGF ELISA,[1]; 20 μM,714 pg/ml/well
same,VEGF,"[1]; 20 μM, DMSO control 4197",221 pg/mL
same,GI50,HCC-2998; [2],3.2 µM
same,CC50,HCC-2998; [3],31.6 µM
same,GI50,OVCAR-3; [2],6.3 µM
same,CC50,OVCAR-3; [3],63.1 µM
same,GI50,SNB-75; [2],6.3 µM
same,CC50,SNB-75; [3],50.1 µM
same,GI50,LOX IMVI,2.5 µM
same,GI50,T-47D; [2],7.9 µM
same,CC50,T-47D; [3],< 100 µM
same,GI50,UO-31; [2],12.6 µM
same,CC50,UO-31; [3],50.1 µM
same,GI50,NCI-H460; [2],7.9 µM
same,CC50,NCI-H460; [3],63.1 µM
same,GI50,SF-268; [2],6.3 µM
same,CC50,SF-268; [3],< 100 µM
same,GI50,NCI-H226; [2],20 µM
same,CC50,NCI-H226; [3],< 100 µM
same,GI50,SNB-19; [2],7.9 µM
same,CC50,SNB-19; [3],63.1 µM
same,GI50,MDA-MB-231; [2],20 µM
same,CC50,MDA-MB-231; [3],< 100 µM
same,GI50,KM12; [2],5 µM
same,CC50,KM12; [3],63.1 µM
same,GI50,HCT-15; [2],4 µM
same,CC50,HCT-15; [3],79.4 µM
same,GI50,MOLT-4; [2],5 µM
same,CC50,MOLT-4; [3],79.4 µM
same,GI50,RXF 393; [2],3.2 µM
same,CC50,RXF 393; [3],50.1 µM
same,GI50,MCF-7; [2],3.2 µM
same,CC50,MCF-7; [3],< 100 µM
